The text below walks through data of patent US12421271B2, “Solid forms of (2S,3S,4S,5R,6S)-3,4,5-trihydroxy-6-(((4AR, 10AR)-7-hydroxy-1-propyl-1,2,3,4,4A,5,10,10A-octahydrobenzo[g]quinolin-6-yl)oxy)tetrahydro-2H-pyran-2-carboxylic acid” (H. Lundbeck A/S, priority 2019, dated 2025).

Structures can show the parent of a compound that is named as a salt.

The nature of data set [1]: Stability studies of solid forms in sealed polyethylene bags (appearance, LC-UV, Karl Fischer water, XRPD). The class given is physicochemical. As to conditions: for Overall outcome of stability testing, in words: 25° C./60% RH and 40° C./75% RH; for Physical form: XRPD. As to the method: The substances were packed individually in sealed polyethylene bags, with a carton box as a secondary packaging material. During stability the different batches were tested for visual appearance, assay (anhydrous i.e. calculated as water free compound), impurities and water content. In addition, XRPD was been performed as described in Example 3 at selected time points.
LC-UV was run on Agilent HPLC consisting of Agilent 1200 HPLC or equivalent including autosampler and DAD detector (operating at 278 nm).
LC-conditions: The column was Synergi Polar-RP 4 μm; 4.6×150 mm operating at 40° C. with 1.0 ml/min of a binary gradient consisting of water/acetonitrile+[…] (90:10) (A) and water/acetonitrile+[…] (35:65) (B).
(§1) The amount of impurities was determined as % area of the peak of impurity relative to the area of the main peak.
The water content was determined by coulometric Karl Fischer titration according to the European Pharmacopoeia, chapter 2.5.32 (Metrohm 874 Oven Sample Processor and Metrohm 851 KF Coulometer). The water content was evaporated by heating samples to 150° C. and the water vapor was transferred by nitrogen to the titration chamber where it was titrated to endpoint using Hydranal Coulomat AG Oven (article number 34739) titration reagent.

A short description of data set [2]: Stress stability, open dishes in the dark, LC-UV impurities. It is filed as physicochemical. The note with it: open dish, % area by LC-UV. As to the method: For the stress stability studies, the substances were stored in open dishes in the dark at 40° C./75% RH, 60° C. and 60° C./80% RH.
as §1
The stress stability testing was performed as described above, and the amount of degradation products were determined based on the LC-UV method described above.

Data set [3] in a line: Dynamic vapor sorption (DVS). The class given is physicochemical. As to conditions: for Hygroscopicity / behaviour towards humidity (DVS), in words: DH1: 5-80% RH, HH: 20-95% RH, K^+ salt: two cycles. As to the method:
Dynamic vapor sorption (DVS) was further used to evaluate selected solid forms. Hygroscopicity and dehydration behavior can be investigated by DVS analysis. DVS experiments were performed using a DVS Advantage 01 instrument from Surface Measurement Systems. Samples of 4-10 mg of the solid forms were used for the analysis. […]

Data set [4] in a line: Grinding, pressure and milling followed by XRPD. The class given is physicochemical. The note with it: for Crystallinity by XRPD after pressure: DH1: 300 PSI for 5 minutes, K^+ salt: IR-press for 5 minutes; for Crystallinity by XRPD after grinding: grinded by hand with mortar and pestle; for Crystallinity by XRPD after subsequent storage of treated sample: 95% RH for 1 week. As to the method:
A sample of the heptahydrate was grinded by hand using mortar and pestle for 2 minutes, and subsequently analyzed by XRPD. […] The samples were analysed by XRPD after the treatment. Subsequently, the samples were placed at 95% RH for 1 week and reanalysed by XRPD.

In data set [5] the test system is rat locomotor activity. As to the kind of experiment: Rat locomotor activity (hyperactivity) assay, open field, with PK/PD. It is filed as in vivo. The protocol:
Mass spectrometer (UPCLC-MS/MS) Waters Acquity I-Class-Waters Xevo TQ-S. Analytical column Acquity HSS T3 C18 50×2.1 mm, 1.8 μm. Mobile phase A: 10 mM NH4—Formate 0.2% formic acid:Acetonitril (95:5). Mobile phase B: 10 mM NH4—Formate 0.2% formic acid:Acetonitril (5:95). Gradient run from 95/5% to 5/95% in 2.40 minutes. Flow rate 0.3 mL/min. MRM detection of test items and the added analytical standards.
Animals for the study were as described in Example 10. Additionally, rats were administered a single dose of apomorphine subcutaneously.
In total, 206 male CD rats (Charles River, Germany) weighing 200-250 grams (165-190 grams upon arrival) were used in the study. Animals were housed at a standard temperature (22±1° C.) and in a light-controlled environment (lights on from 7 am to […]) with ad libitum access to food and water. The experiment described below was performed in accordance with the standard operating procedures of Charles River Discovery Research Services Finland Ltd. and in accordance with the national Animal Experiment Board of Finland (Eläinkoelautakunta, ELLA) authority on animal testing.
The test device is a square Plexiglass-arena (measuring 40×40×40 cm), in which the movement paths of the rats are recorded by an activity monitor (Med. Associates Inc.). Before the test period is initiated, rats are habituated to their test cage for 60 minutes. Upon completion of habituation, animals were treated with either compound or vehicle and placed back into the open field apparatus. The main test parameter measured is ambulatory distance (recorded in 5-minute segments). Overall time of measurement after receiving initial treatment was 360 minutes. Total follow up period in the study was 420 min, including 60 min of habituation.

As for `CCCN1CCC[C@@H]2Cc3c(ccc(O)c3O[C@@H]3O[C@H](C(=O)O)[C@@H](O)[C@H](O)[C@H]3O)C[C@H]21` [DH1, (2S,3S,4S,5R,6S)-3,4,5-trihydroxy-6-(((4aR,10aR)-7-hydroxy-1-propyl-1,2,3,4,4a,5,10,10a-octahydrobenzo[g]quinolin-6-yl)oxy)tetrahydro-2H-pyran-2-carboxylic acid], the “Overall outcome of stability testing, in words” value (“Overall outcome” for short) in data set [1] (listed as dihydrate) is reported as “no changes in appearance, water content or physical form (XRPD)”. The “Water content, %” value in data set [1] (25° C./60% RH, 4 months) is on record as 7.6%; in data set [1] (25° C./60% RH, 6 months) it was 7.6%; in data set [1] (25° C./60% RH, 10 months), 7.4%; in data set [1] (25° C./60% RH, Initial) it was 7.6%; in data set [1] (40° C./75% RH, 4 months), 7.4%; in data set [1] (40° C./75% RH, 6 months), 7.5%. For the same compound, in data set [1] (40° C./75% RH, Initial), the “Water content, %” value is listed as 7.6%. Further, the Physical form entry in data set [1] (25° C./60% RH, 4 months) was “DH1”; in data set [1] (25° C./60% RH, 6 months), “DH1”; in data set [1] (25° C./60% RH, Initial) it was “DH1”; in data set [1] (40° C./75% RH, 4 months), “DH1”; in data set [1] (40° C./75% RH, 6 months), “DH1”; in data set [1] (40° C./75% RH, Initial), “DH1”. For the same compound, the “Total sum of impurities after 6 months storage” value (from here on “Total sum of impurities”) in data set [2] (40° C./75% RH, listed as Dihydrate) worked out at 0.05%; in data set [2] (60° C., listed as Dihydrate), 1.0%; in data set [2] (60° C./80% RH, listed as Dihydrate), 0.05%. The “Hygroscopicity / behaviour towards humidity (DVS), in words” value in data set [3] is listed as “non-hygroscopic”. Further, in data set [3] (humidity range 5-90% RH), the “Water absorbed or desorbed (DVS)” value is listed as “Less than 0.1%”. Besides, in data set [4], the “Crystallinity by XRPD after pressure” value is recorded as “did not show sign of decreased crystallinity”. For the same compound, in data set [4], the “Crystallinity by XRPD after grinding” value is recorded as “did not show sign of decreased crystallinity”. The “Crystallinity by XRPD after milling” value in data set [4] (milled vs un-milled material) was “no apparent change in crystallinity”.
As to `CCCN1CCC[C@@H]2Cc3c(ccc(O)c3O[C@@H]3O[C@H](C(=O)O)[C@@H](O)[C@H](O)[C@H]3O)C[C@H]21` [HH, (2S,3S,4S,5R,6S)-3,4,5-trihydroxy-6-(((4aR,10aR)-7-hydroxy-1-propyl-1,2,3,4,4a,5,10,10a-octahydrobenzo[g]quinolin-6-yl)oxy)tetrahydro-2H-pyran-2-carboxylic acid], in data set [1], the “Overall outcome” value is “Changes in visual appearance, water content and physical form (XRPD) were seen”. For the same compound, the “Water content, %” value is listed as 22.3% in data set [1] (25° C./60% RH, 3 months); 20.0% in data set [1] (25° C./60% RH, 6 months); 21.6% in data set [1] (25° C./60% RH, 9 months); 15.0% in data set [1] (25° C./60% RH, 12 months); 20.9% in data set [1] (25° C./60% RH, 18 months); 21.6% in data set [1] (25° C./60% RH, Initial). For the same compound, the “Water content, %” value in data set [1] (40° C./75% RH, 3 months) is 7.6%; in data set [1] (40° C./75% RH, 6 months), 7.6%; in data set [1] (40° C./75% RH, Initial) it was 21.6%. The Physical form result in data set [1] (25° C./60% RH, 9 months) is “Form C”; in data set [1] (40° C./75% RH, 3 months), “DH1”. The “Total sum of impurities” value in data set [2] (40° C./75% RH, listed as Heptahydrate) was <0.05%; in data set [2] (60° C., listed as Heptahydrate), 4.3%; in data set [2] (60° C./80% RH, listed as Heptahydrate) it was <0.05%. In data set [3], the “Hygroscopicity / behaviour towards humidity (DVS), in words” value is “absorbs and desorbs water at humidity between 20% RH and 95% RH without changing the crystal form”. For the same compound, the “Behaviour at low humidity (DVS), in words” value in data set [3] (humidity below 20%) is “changes into other less hydrated forms”. For the same compound, the “Crystallinity by XRPD after subsequent storage of treated sample” value in data set [4] (listed as heptahydrate) is “regained crystallinity after storage”. Further, the “Crystallinity by XRPD after grinding” value in data set [4] (listed as heptahydrate) is “reflections became a bit broader and an amorphous halo became visible”.
`CCCN1CCC[C@@H]2Cc3c(ccc(O)c3O[C@@H]3O[C@H](C(=O)O)[C@@H](O)[C@H](O)[C@H]3O)C[C@H]21` [K^+ salt, (2S,3S,4S,5R,6S)-3,4,5-trihydroxy-6-(((4aR,10aR)-7-hydroxy-1-propyl-1,2,3,4,4a,5,10,10a-octahydrobenzo[g]quinolin-6-yl)oxy)tetrahydro-2H-pyran-2-carboxylic acid]: the “Overall outcome” value in data set [1] (listed as potassium salt) was “remained in the same physical form”. Besides, the “Water content, %” value was 0.22% in data set [1] (25° C./60% RH, 3 months); 0.17% in data set [1] (25° C./60% RH, 6 months); <0.10% in data set [1] (25° C./60% RH, 9 months); <0.10% in data set [1] (25° C./60% RH, 13 months); 0.23% in data set [1] (25° C./60% RH, 18 months); 0.11% in data set [1] (25° C./60% RH, Initial). For the same compound, the “Water content, %” value is on record as 0.38% in data set [1] (40° C./75% RH, 3 months); 0.25% in data set [1] (40° C./75% RH, 6 months); 0.11% in data set [1] (40° C./75% RH, Initial). Further, the Physical form entry in data set [1] (25° C./60% RH, 6 months) is “Alfa form”; in data set [1] (25° C./60% RH, 9 months) it was “Alfa form”; in data set [1] (25° C./60% RH, 13 months), “Alfa form”; in data set [1] (25° C./60% RH, 18 months), “Alfa form”; in data set [1] (25° C./60% RH, Initial), “Alfa form”; in data set [1] (40° C./75% RH, 6 months) it was “Alfa form”. The Physical form result in data set [1] (40° C./75% RH, Initial) is given as “Alfa form”. Further, the “Total sum of impurities” value in data set [2] (40° C./75% RH, listed as Potassium salt) is on record as 0.10%; in data set [2] (60° C., listed as Potassium salt) it was 0.10%; in data set [2] (60° C./80% RH, listed as Potassium salt), 1.0%. Also, in data set [3], the “Hygroscopicity / behaviour towards humidity (DVS), in words” value is listed as “stable towards change in humidity”. For the same compound, the “Weight change (DVS)” value in data set [3] (at 80% RH) is listed as “up to 0.6%”. Further, the “Further weight change (DVS)” value in data set [3] (at 90% RH) stood at 1%. The “Crystallinity by XRPD after subsequent storage of treated sample” value in data set [4] is given as “regained crystallinity after storage at high humidity”. For the same compound, the “Crystallinity by XRPD after pressure” value in data set [4] is reported as “some broadening of the XRPD reflections”. Besides, the “Crystallinity by XRPD after grinding” value in data set [4] is “severe broadening of the XRPD reflections”.
Regarding `CN1CCc2cccc3c2[C@H]1Cc1ccc(O)c(O)c1-3` [apomorphine, reference compound], in data set [5] ((Id) 100 μg/kg p.o. (FIG. 4), apomorphine 3 mg/kg s.c. (FIG. 5)), the “Relationship of behavioral effect and plasma concentration” value is “correlation between plasma concentrations of apomorphine and hyperactive behavior”. In addition, in data set [5] ((Id) 10 to 300 μg/kg p.o., apomorphine 3 mg/kg s.c., pramipexole 0.3 mg/kg s.c., FIG. 2), the “Start of locomotor effect post-administration” value is given as “immediate”. For the same compound, the “Time post administration at which hyperactivity is gone” value in data set [5] (apomorphine 3 mg/kg s.c., 150-minute time point) is 1.5 h.
